The values below come from patent US8541407B2 (ArQule, Inc., priority 2010, dated 2013).

Molecules are shown by their SMILES. pIC50: −log10 of the molar value.

Chain of AKT1 (P31749 whole entry): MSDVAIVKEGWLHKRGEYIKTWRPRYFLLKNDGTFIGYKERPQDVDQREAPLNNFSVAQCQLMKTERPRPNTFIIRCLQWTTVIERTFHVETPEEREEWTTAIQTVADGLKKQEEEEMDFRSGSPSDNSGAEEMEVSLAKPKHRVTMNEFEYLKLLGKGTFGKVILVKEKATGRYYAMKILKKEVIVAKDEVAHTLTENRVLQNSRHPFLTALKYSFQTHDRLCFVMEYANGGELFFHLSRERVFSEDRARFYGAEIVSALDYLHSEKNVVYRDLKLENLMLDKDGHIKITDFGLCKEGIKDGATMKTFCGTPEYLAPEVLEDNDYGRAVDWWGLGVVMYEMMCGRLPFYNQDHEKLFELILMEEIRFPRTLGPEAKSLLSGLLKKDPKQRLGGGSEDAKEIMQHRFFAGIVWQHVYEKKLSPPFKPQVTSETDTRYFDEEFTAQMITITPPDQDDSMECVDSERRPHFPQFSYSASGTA

This experiment concerns the target AKT1 (Homo sapiens (Human), UniProt P31749). The experiment is described as follows: Inactive Akt Alpha Screen Assay. The conditions noted are these: non *labeled: Akt Alpha Screen assay; read-out: AKT1 biochemical assay, IC50. The protocol: AKT1 activity was assayed using the GSK3-derived biotinylated peptide substrate, crosstide (biotin-[…]), and AlphaScreen™ (Amplified Luminescent Proximity Homogeneous Assay) technology. AKT1 activation was achieved by the addition of the activating kinases PDK1 and MAPKAPK2, lipid vesicles, and ATP. The extent of peptide phosphorylation was determined using a phospho-AKT substrate antibody and acceptor beads conjugated to Protein A and donor beads conjugated to streptavidin that bind to the biotin on the peptide. Excitation of the donor beads converted ambient oxygen to excited singlet oxygen which, when in close proximity to acceptor beads, reacted with acceptor beads resulting in signal amplification. […] The plates were incubated for 30 minutes at room temperature, and then stopped in the dark by the addition of 10 μL stop/detection mixture prepared in assay buffer containing EDTA, AlphaScreen™ Streptavidin Donor and Protein A Acceptor beads, and phospho-AKT substrate antibody for final concentrations of 10 mM EDTA, 500 ng/well of both AlphaScreen™ Streptavidin Donor beads and Protein A Acceptor beads, and phospho-AKT substrate antibody at a final dilution of 1:350. Assay plates were incubated for 90 minutes at room temperature in the dark, and the plates were read on a Perkin Elmer Envision Multilabel plate reader (excitation wavelength: […], emission wavelength: 570 nm). […] Envision Instrument Settings: • Instrument: Perkin Elmer Envision • Plate: 96 well • Program Name: • Excitation: Ex Top • Mirror: General Dual—Slot 2 • Excitation Filter: CFP430 Ex.
Consider `CC(C)(C)c1ccc(C(=O)Nc2ccc(-c3nnc4n3-c3cccnc3Nc3ccccc3-4)cc2)cc1` [Example 44, N-(4-(9H-benzo[f]pyrido[2,3-b][1,2,4]triazolo[4,3-d][1,4]diazepin-3-yl)phenyl)-4-(tert-butyl)benzamide], for which the pIC50 (commonly the negative decadic logarithm of the IC50, by convention in mol/L) was 6.64.

Turning to `CN(C)c1ccc(C(=O)Nc2ccc(-c3nnc4n3-c3cccnc3Nc3ccccc3-4)cc2)cc1` [Example 45, N-(4-(9H-benzo[f]pyrido[2,3-b][1,2,4]triazolo[4,3-d][1,4]diazepin-3-yl)phenyl)-4-(dimethylamino)benzamide], the pIC50 was 5.72.

Take `O=C(Nc1ccc(-c2nnc3n2-c2cccnc2Nc2ccccc2-3)cc1)c1ccc(F)c(C(F)(F)F)c1` [Example 46, N-(4-(9H-benzo[f]pyrido[2,3-b][1,2,4]triazolo[4,3-d][1,4]diazepin-3-yl)phenyl)-4-fluoro-3-(trifluoromethyl)benzamide]: the pIC50 is 5.28.

As to `O=C(Nc1ccc(-c2nnc3n2-c2cccnc2Nc2ccccc2-3)cc1)c1ccc2c(c1)OCO2` [Example 47, N-(4-(9H-benzo[f]pyrido[2,3-b][1,2,4]triazolo[4,3-d][1,4]diazepin-3-yl)phenyl)benzo[d][1,3]dioxole-5-carboxamide], the negative-log IC50 (pIC50) was 7.28.

Consider `Cc1cc(C(=O)Nc2ccc(-c3nnc4n3-c3cccnc3Nc3ccccc3-4)cc2)no1` [Example 48, N-(4-(9H-benzo[f]pyrido[2,3-b][1,2,4]triazolo[4,3-d][1,4]diazepin-3-yl)phenyl)-5-methylisoxazole-3-carboxamide], for which the pIC50 was 6.92.

Turning to `O=C(Cc1ccccc1)Nc1ccc(-c2nnc3n2-c2cccnc2Nc2ccccc2-3)cc1` [Example 49, N-(4-(9H-benzo[f]pyrido[2,3-b][1,2,4]triazolo[4,3-d][1,4]diazepin-3-yl)phenyl)-2-phenylacetamide], the pIC50 is 6.62.

On to `O=C(Nc1ccc(-c2nnc3n2-c2cccnc2Nc2ccccc2-3)cc1)c1ccco1` [Example 50, N-(4-(9H-benzo[f]pyrido[2,3-b][1,2,4]triazolo[4,3-d][1,4]diazepin-3-yl)phenyl)furan-2-carboxamide], for which the pIC50 was 6.89.

In the case of `O=C(Nc1ccc(-c2nnc3n2-c2cccnc2Nc2ccccc2-3)cc1)c1ccccc1F` [Example 51, N-(4-(9H-benzo[f]pyrido[2,3-b][1,2,4]triazolo[4,3-d][1,4]diazepin-3-yl)phenyl)-2-fluorobenzamide], the pIC50 is 6.96.

Turning to `O=C(Nc1ccc(-c2nnc3n2-c2cccnc2Nc2ccccc2-3)cc1)c1ccc(C(F)(F)F)cc1` [Example 52, N-(4-(9H-benzo[f]pyrido[2,3-b][1,2,4]triazolo[4,3-d][1,4]diazepin-3-yl)phenyl)-4-(trifluoromethyl)benzamide], the pIC50 was 6.19.

As for `COCC(=O)Nc1ccc(-c2nnc3n2-c2cccnc2Nc2ccccc2-3)cc1` [Example 53, N-(4-(9H-benzo[f]pyrido[2,3-b][1,2,4]triazolo[4,3-d][1,4]diazepin-3-yl)phenyl)-2-methoxyacetamide], the pIC50 is 5.82.

As for `O=C(CCc1ccccc1)Nc1ccc(-c2nnc3n2-c2cccnc2Nc2ccccc2-3)cc1` [Example 54, N-(4-(9H-benzo[f]pyrido[2,3-b][1,2,4]triazolo[4,3-d][1,4]diazepin-3-yl)phenyl)-3-phenylpropanamide], the pIC50 was 5.74.

As to `O=C(Nc1ccc(-c2nnc3n2-c2cccnc2Nc2ccccc2-3)cc1)c1cnc2ccccc2n1` [Example 55, N-(4-(9H-benzo[f]pyrido[2,3-b][1,2,4]triazolo[4,3-d][1,4]diazepin-3-yl)phenyl)quinoxaline-2-carboxamide], the pIC50 is 6.80.

With `O=C(Nc1ccc(-c2nnc3n2-c2cccnc2Nc2ccccc2-3)cc1)C1CCC1` [Example 57, N-(4-(9H-benzo[f]pyrido[2,3-b][1,2,4]triazolo[4,3-d][1,4]diazepin-3-yl)phenyl)cyclobutanecarboxamide], the pIC50 is 6.15.

For `O=C(Nc1ccc(-c2nnc3n2-c2cccnc2Nc2ccccc2-3)cc1)c1ccncc1` [Example 58, N-(4-(9H-benzo[f]pyrido[2,3-b][1,2,4]triazolo[4,3-d][1,4]diazepin-3-yl)phenyl)isonicotinamide], the pIC50 is 6.46.

Turning to `N#Cc1cccc(C(=O)Nc2ccc(-c3nnc4n3-c3cccnc3Nc3ccccc3-4)cc2)c1` [Example 60, N-(4-(9H-benzo[f]pyrido[2,3-b][1,2,4]triazolo[4,3-d][1,4]diazepin-3-yl)phenyl)-3-cyanobenzamide], the pIC50 is 7.12.

As for `O=C(Nc1ccc(-c2nnc3n2-c2cccnc2Nc2ccccc2-3)cc1)c1ccc(-c2ccccc2)cc1` [Example 61, N-(4-(9H-benzo[f]pyrido[2,3-b][1,2,4]triazolo[4,3-d][1,4]diazepin-3-yl)phenyl)-[1,1′-biphenyl]-4-carboxamide], the pIC50 was 6.11.

`NCc1ccc(-c2nnc3n2-c2cccnc2Nc2ccccc2-3)cc1` [Example 62, (4-(9H-benzo[f]pyrido[2,3-b][1,2,4]triazolo[4,3-d][1,4]diazepin-3-yl)phenyl)methanamine]: the pIC50 was 6.16.

Consider `CS(=O)(=O)OCc1ccc(-c2nnc3n2-c2cccnc2Nc2ccccc2-3)cc1` [Example 64, 4-(9H-benzo[f]pyrido[2,3-b][1,2,4]triazolo[4,3-d][1,4]diazepin-3-yl)benzyl methanesulfonate], for which the pIC50 is 6.31.

Regarding `c1ccc2c(c1)Nc1ncccc1-n1c(-c3ccc(CN4CCCC4)cc3)nnc1-2` [Example 65, 3-(4-(pyrrolidin-1-ylmethyl)phenyl)-9H-benzo[f]pyrido[2,3-b][1,2,4]triazolo[4,3-d][1,4]diazepine], the pIC50 is 5.37.

With `c1ccc(CNCc2ccc(-c3nnc4n3-c3cccnc3Nc3ccccc3-4)cc2)cc1` [Example 66, N-(4-(9H-benzo[f]pyrido[2,3-b][1,2,4]triazolo[4,3-d][1,4]diazepin-3-yl)benzyl)-1-phenylmethanamine], the pIC50 is 5.72.

For the compound `Fc1ccccc1N1CCN(Cc2ccc(-c3nnc4n3-c3cccnc3Nc3ccccc3-4)cc2)CC1` [Example 67, 3-(4-((4-(2-fluorophenyl)piperazin-1-yl)methyl)phenyl)-9H-benzo[f]pyrido[2,3-b][1,2,4]triazolo[4,3-d][1,4]diazepine], the pIC50 was 5.55.

As to `CC(C)CCNCc1ccc(-c2nnc3n2-c2cccnc2Nc2ccccc2-3)cc1` [Example 68, N-(4-(9H-benzo[f]pyrido[2,3-b][1,2,4]triazolo[4,3-d][1,4]diazepin-3-yl)benzyl)-3-methylbutan-1-amine], the pIC50 was 5.36.

As to `c1ccc2c(c1)Nc1ncccc1-n1c(-c3ccc(CNC4CCC4)cc3)nnc1-2` [Example 69, N-(4-(9H-benzo[f]pyrido[2,3-b][1,2,4]triazolo[4,3-d][1,4]diazepin-3-yl)benzyl)cyclobutanamine], the pIC50 is 5.35.

Turning to `CCN(Cc1ccncc1)Cc1ccc(-c2nnc3n2-c2cccnc2Nc2ccccc2-3)cc1` [Example 70, N-(4-(9H-benzo[f]pyrido[2,3-b][1,2,4]triazolo[4,3-d][1,4]diazepin-3-yl)benzyl)-N-(pyridin-4-ylmethyl)ethanamine], the pIC50 was 5.68.

`CC(C)CNCc1ccc(-c2nnc3n2-c2cccnc2Nc2ccccc2-3)cc1` [Example 71, N-(4-(9H-benzo[f]pyrido[2,3-b][1,2,4]triazolo[4,3-d][1,4]diazepin-3-yl)benzyl)-2-methylpropan-1-amine]: the pIC50 was 5.19.

Regarding `CN(C)C(=O)CN1CCN(Cc2ccc(-c3nnc4n3-c3cccnc3Nc3ccccc3-4)cc2)CC1` [Example 72, 2-(4-(4-(9H-benzo[f]pyrido[2,3-b][1,2,4]triazolo[4,3-d][1,4]diazepin-3-yl)benzyl)piperazin-1-yl)-N,N-dimethylacetamide], the pIC50 was 5.10.

As to `COCCNCc1ccc(-c2nnc3n2-c2cccnc2Nc2ccccc2-3)cc1` [Example 73, N-(4-(9H-benzo[f]pyrido[2,3-b][1,2,4]triazolo[4,3-d][1,4]diazepin-3-yl)benzyl)-2-methoxyethanamine], the pIC50 was 5.34.

As to `c1ccc2c(c1)Nc1ncccc1-n1c(-c3ccc(CN4CCN(Cc5ccncc5)CC4)cc3)nnc1-2` [Example 74, 3-(4-((4-(pyridin-4-ylmethyl)piperazin-1-yl)methyl)phenyl)-9H-benzo[f]pyrido[2,3-b][1,2,4]triazolo[4,3-d][1,4]diazepine], the pIC50 is 5.28.

With `CN(CCc1ccccn1)Cc1ccc(-c2nnc3n2-c2cccnc2Nc2ccccc2-3)cc1` [Example 75, N-(4-(9H-benzo[f]pyrido[2,3-b][1,2,4]triazolo[4,3-d][1,4]diazepin-3-yl)benzyl)-N-methyl-2-(pyridin-2-yl)ethanamine], the pIC50 was 5.96.

Consider `OCC1CCN(Cc2ccc(-c3nnc4n3-c3cccnc3Nc3ccccc3-4)cc2)CC1` [Example 76, (1-(4-(9H-benzo[f]pyrido[2,3-b][1,2,4]triazolo[4,3-d][1,4]diazepin-3-yl)benzyl)piperidin-4-yl)methanol], for which the pIC50 was 5.08.

For `COCCN(C)Cc1ccc(-c2nnc3n2-c2cccnc2Nc2ccccc2-3)cc1` [Example 77, N-(4-(9H-benzo[f]pyrido[2,3-b][1,2,4]triazolo[4,3-d][1,4]diazepin-3-yl)benzyl)-2-methoxy-N-methylethanamine], the pIC50 was 5.33.
